The values below come from ChEMBL document CHEMBL1909046, “DrugMatrix in vitro pharmacology data”.

The target in one data set is Mu-type opioid receptor (Homo sapiens, UniProt P35372). Nature of the data set: DRUGMATRIX: Opiate mu (OP3, MOP) radioligand binding (ligand: [3H] Diprenorphine). The data set is classed as cell membranes, CHO-K1, Membrane. To be noted: Not Active = under 50% inhibition at 10 µM.
Data set [1] in a line: DRUGMATRIX: Platelet-Derived Growth Factor (PDGF) radioligand binding (ligand: [125I] PDGF). The data set is classed as cell-based. As to conditions: nih3t3; Not Active = under 50% inhibition at 10 µM.
The target of data set [2] is Sodium-dependent noradrenaline transporter (Homo sapiens, UniProt P23975). Put plainly: DRUGMATRIX: Norepinephrine Transporter radioligand binding (ligand: [125I] RTI-55). The data set is classed as cell membranes, MDCK, Membrane. To be noted: mdck; Not Active = under 50% inhibition at 10 µM.
In the next data set the target is D(1A) dopamine receptor (Homo sapiens, UniProt P21728). Nature of the data set: DRUGMATRIX: Dopamine D1 radioligand binding (ligand: [3H] SCH-23390). The data set is classed as cell membranes, CHO, Membrane. To be noted: cho; Not Active = under 50% inhibition at 10 µM.
The target of the next data set is Cytochrome P450 2C9 (Homo sapiens, UniProt P11712). As to conditions: bti-tn-5b1-4. Note: in other assays of this panel Not Active means under 50% inhibition at 10 µM.
Data set [3] deals with Kappa-type opioid receptor (Homo sapiens, UniProt P41145). Put plainly: DRUGMATRIX: Opiate kappa (OP2, KOP) radioligand binding (ligand: [3H] Diprenorphine). The data set is classed as cell membranes, HEK293, Membrane. As to conditions: Not Active = under 50% inhibition at 10 µM.
The target of data set [4] is Sodium-dependent dopamine transporter (Homo sapiens, UniProt Q01959). Nature of the data set: DRUGMATRIX: Dopamine Transporter radioligand binding (ligand: [125I] RTI-55). The format is cell membranes, CHO-K1, Membrane. To be noted: cho-k1; Not Active = under 50% inhibition at 10 µM.
Data set [5] in a line: DRUGMATRIX: Glutamate, NMDA, Agonism radioligand binding (ligand: [3H] CGP-39653). The format is cell membranes, Rattus norvegicus, Wistar, Cerebral cortex, Membrane. To be noted: Not Active = under 50% inhibition at 10 µM.
Data set [6] is described as follows: DRUGMATRIX: Glutamate, NMDA, Phencyclidine radioligand binding (ligand: [3H] TCP). The data set is classed as cell membranes, Rattus norvegicus, Wistar, Cerebral cortex, Membrane. To be noted: Not Active = under 50% inhibition at 10 µM.

Sodium-dependent noradrenaline transporter, sequence (P23975 whole entry): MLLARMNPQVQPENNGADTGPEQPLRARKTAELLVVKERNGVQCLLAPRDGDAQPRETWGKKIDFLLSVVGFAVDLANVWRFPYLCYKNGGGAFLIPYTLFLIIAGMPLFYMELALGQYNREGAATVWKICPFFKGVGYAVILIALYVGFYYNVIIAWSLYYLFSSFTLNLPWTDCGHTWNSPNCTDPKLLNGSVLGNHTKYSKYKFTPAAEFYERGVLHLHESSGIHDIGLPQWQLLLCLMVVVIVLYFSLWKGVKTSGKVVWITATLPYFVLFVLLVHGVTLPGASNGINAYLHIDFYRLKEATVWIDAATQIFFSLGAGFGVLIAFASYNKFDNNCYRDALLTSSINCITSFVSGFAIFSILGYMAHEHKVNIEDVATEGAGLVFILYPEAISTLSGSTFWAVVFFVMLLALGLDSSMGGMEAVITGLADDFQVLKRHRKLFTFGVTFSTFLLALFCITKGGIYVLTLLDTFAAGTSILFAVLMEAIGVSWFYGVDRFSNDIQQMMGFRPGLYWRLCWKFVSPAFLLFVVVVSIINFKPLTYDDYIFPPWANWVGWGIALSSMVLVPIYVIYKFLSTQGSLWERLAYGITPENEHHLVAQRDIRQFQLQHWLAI
Cytochrome P450 2C9, sequence (P11712 whole entry): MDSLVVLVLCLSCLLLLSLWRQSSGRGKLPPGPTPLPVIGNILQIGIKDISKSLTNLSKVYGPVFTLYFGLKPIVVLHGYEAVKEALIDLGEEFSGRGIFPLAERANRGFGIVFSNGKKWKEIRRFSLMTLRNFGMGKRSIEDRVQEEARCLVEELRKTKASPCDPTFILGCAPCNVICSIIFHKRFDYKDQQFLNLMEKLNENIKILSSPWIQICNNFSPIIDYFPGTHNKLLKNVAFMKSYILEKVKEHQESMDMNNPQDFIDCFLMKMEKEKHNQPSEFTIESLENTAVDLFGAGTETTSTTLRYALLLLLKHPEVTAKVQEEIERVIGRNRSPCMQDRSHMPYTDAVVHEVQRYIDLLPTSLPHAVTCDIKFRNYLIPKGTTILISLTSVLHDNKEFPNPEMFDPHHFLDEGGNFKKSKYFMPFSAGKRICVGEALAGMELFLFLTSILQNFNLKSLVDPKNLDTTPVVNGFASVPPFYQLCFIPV
Mu-type opioid receptor, sequence (P35372 whole entry): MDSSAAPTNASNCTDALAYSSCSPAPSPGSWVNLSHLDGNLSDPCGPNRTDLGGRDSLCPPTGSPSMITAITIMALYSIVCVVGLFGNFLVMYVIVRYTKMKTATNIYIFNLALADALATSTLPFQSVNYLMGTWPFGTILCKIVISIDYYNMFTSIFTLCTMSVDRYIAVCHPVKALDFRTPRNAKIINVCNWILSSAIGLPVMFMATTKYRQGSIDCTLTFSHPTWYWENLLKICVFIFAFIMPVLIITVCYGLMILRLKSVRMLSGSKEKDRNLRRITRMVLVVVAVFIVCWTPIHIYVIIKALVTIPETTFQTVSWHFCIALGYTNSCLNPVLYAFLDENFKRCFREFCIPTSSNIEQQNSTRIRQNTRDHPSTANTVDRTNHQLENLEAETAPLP
Kappa-type opioid receptor, sequence (P41145 whole entry): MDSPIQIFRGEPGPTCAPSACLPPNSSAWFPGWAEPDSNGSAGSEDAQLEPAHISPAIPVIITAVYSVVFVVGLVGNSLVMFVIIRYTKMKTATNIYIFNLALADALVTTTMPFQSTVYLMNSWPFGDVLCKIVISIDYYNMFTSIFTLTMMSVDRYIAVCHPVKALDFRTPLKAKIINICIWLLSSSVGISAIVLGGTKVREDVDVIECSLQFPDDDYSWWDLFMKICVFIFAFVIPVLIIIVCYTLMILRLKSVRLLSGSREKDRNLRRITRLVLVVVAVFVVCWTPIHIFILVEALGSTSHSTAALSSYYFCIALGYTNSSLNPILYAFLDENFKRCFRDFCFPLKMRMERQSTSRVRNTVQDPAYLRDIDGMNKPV
D(1A) dopamine receptor, sequence (P21728 whole entry): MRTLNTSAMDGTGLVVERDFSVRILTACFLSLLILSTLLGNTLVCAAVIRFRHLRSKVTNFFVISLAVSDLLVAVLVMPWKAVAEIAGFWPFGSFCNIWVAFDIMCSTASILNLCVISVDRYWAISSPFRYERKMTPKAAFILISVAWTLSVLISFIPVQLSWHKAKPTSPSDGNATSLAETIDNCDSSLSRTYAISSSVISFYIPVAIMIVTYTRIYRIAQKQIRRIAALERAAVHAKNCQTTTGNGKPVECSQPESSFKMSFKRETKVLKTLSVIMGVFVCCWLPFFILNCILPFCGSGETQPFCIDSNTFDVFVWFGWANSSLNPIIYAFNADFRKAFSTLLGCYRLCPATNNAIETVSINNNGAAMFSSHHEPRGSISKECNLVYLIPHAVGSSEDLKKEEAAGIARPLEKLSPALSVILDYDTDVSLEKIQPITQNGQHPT
Sodium-dependent dopamine transporter, sequence (Q01959 whole entry): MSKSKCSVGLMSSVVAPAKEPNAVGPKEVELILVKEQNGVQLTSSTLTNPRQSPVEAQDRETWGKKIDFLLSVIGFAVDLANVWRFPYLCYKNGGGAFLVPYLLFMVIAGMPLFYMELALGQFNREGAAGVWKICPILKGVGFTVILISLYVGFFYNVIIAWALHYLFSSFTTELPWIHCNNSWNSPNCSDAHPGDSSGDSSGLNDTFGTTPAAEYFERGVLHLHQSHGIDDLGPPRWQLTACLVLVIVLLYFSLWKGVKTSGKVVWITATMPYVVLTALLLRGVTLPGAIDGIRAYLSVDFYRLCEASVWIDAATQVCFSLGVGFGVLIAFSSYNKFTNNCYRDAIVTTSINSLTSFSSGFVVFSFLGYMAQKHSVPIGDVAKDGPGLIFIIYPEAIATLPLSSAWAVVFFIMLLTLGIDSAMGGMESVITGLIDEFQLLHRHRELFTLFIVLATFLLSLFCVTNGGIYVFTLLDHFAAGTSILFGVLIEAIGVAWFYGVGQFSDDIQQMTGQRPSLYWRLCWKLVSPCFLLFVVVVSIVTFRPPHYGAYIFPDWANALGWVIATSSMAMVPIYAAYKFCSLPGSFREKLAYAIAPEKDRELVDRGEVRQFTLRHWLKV

As for `CCCCC(=O)N(Cc1ccc(-c2ccccc2-c2nnn[nH]2)cc1)[C@H](C(=O)O)C(C)C`, the IC50 entry (on Mu-type opioid receptor (cho-k1); in [1]; in [2]; on D(1A) dopamine receptor; against Cytochrome P450 2C9; in data set [3] (hek293)) was “Not Active” each time. The 50% inhibitory concentration (IC50) result in data set [4], in data set [5] and in [6] was “Not Active” in each case. Besides, the Ki entry (in data set [1]; on Cytochrome P450 2C9; in data set [5]; in data set [6]) was “Not Active” in each case.

Regarding `O=C(O)COc1ccc(C(=O)c2cccs2)c(Cl)c1Cl`, the concentration for half-maximal inhibition (IC50) result (on Mu-type opioid receptor (cho-k1); in [1]; in [2]; at D(1A) dopamine receptor; against Cytochrome P450 2C9; in data set [3] (hek293)) was “Not Active” each time. Besides, the IC50 entry in data set [4], in [5] and in data set [6] was “Not Active” throughout. Besides, the Ki result (in data set [1]; at Cytochrome P450 2C9; in [5]; in data set [6]) was “Not Active” throughout.

For the compound `CN1[C@@H]2CC[C@H]1C[C@@H](OC(c1ccccc1)c1ccccc1)C2` [BENZTROPINE], the IC50 entry (at Mu-type opioid receptor (cho-k1); against Cytochrome P450 2C9; in data set [3] (hek293)) was “Not Active” throughout. On Cytochrome P450 2C9, the Ki – broadly, a dissociation constant, usually derived from enzyme kinetics or from competition with a known ligand – is given as “Not Active”.

Turning to `C[C@@](Cc1ccc(O)c(O)c1)(NN)C(=O)O.O` [CARBIDOPA], the IC50 entry (on Mu-type opioid receptor (cho-k1); in [1]; in [2]; at D(1A) dopamine receptor; on Cytochrome P450 2C9; in data set [3] (hek293)) was “Not Active” each time. Also, the IC50 result in [4], in [5] and in data set [6] was “Not Active” each time. Further, the Ki entry (in data set [1]; at Cytochrome P450 2C9; in data set [5]; in data set [6]) was “Not Active” throughout.

Take `CN1CCN(C2=Nc3cc(Cl)ccc3Nc3ccccc32)CC1` [CLOZAPINE]: the IC50 entry (at Mu-type opioid receptor (cho-k1); on Cytochrome P450 2C9; in [3] (hek293)) was “Not Active” each time. In addition, the Ki result at Cytochrome P450 2C9 is given as “Not Active”.

Take `CC(C)NC[C@@H](O)COc1cccc2ccccc12` [DEXPROPRANOLOL]: the IC50 result (on Mu-type opioid receptor (cho-k1); against Cytochrome P450 2C9; in data set [3] (hek293)) was “Not Active” throughout. In addition, the Ki entry at Cytochrome P450 2C9 was “Not Active”.

Take `CC(C)NC[C@H](O)COc1cccc2ccccc12` [LEVOPROPRANOLOL]: the IC50 entry (at Mu-type opioid receptor (cho-k1); against Cytochrome P450 2C9; in [3] (hek293)) was “Not Active” each time. The Ki result on Cytochrome P450 2C9 is on record as “Not Active”.

On to `O=C(O)CCCCC1CCSS1` (stereo not drawn) [LIPOIC ACID, ALPHA], for which the IC50 result (on Mu-type opioid receptor (cho-k1); in data set [1]; in [2]; on D(1A) dopamine receptor; against Cytochrome P450 2C9; in data set [3] (hek293)) was “Not Active” each time. For the same compound, the IC50 entry in [4], in data set [5] and in [6] was “Not Active” in each case. Also, the Ki result (in data set [1]; at Cytochrome P450 2C9; in data set [5]; in data set [6]) was “Not Active” each time.

Regarding `CN(C)C(=O)C(CCN1CCC(O)(c2ccc(Cl)cc2)CC1)(c1ccccc1)c1ccccc1` [LOPERAMIDE], on Cytochrome P450 2C9, the IC50 – broadly, the point on the concentration scale where inhibition reaches its midpoint – is on record as “Not Active” and the Ki entry is “Not Active”.

As for `Clc1ccc(COC(Cn2ccnc2)c2ccc(Cl)cc2Cl)c(Cl)c1` (stereo unspecified) [MICONAZOLE], the Ki came to 2.46 µM at Mu-type opioid receptor and 2.64 µM in [3]. Moreover, the IC50 at Mu-type opioid receptor (read-out: IC50) was found to be 6.06 µM; in data set [3] (read-out: IC50) it was 6.59 µM.

For the compound `Oc1ccc2c3c1O[C@H]1[C@@H](O)CC[C@@]4(O)[C@@H](C2)N(CC2CCC2)CC[C@]314` [NALBUPHINE], the IC50 entry in [2] and in [4] was “Not Active” each time.

As to `C[C@]12C=CC(=O)C=C1CC[C@@H]1[C@@H]2C(=O)C[C@@]2(C)[C@H]1CC[C@]2(O)C(=O)CO` [PREDNISONE], the IC50 result (on Mu-type opioid receptor (cho-k1); in [1]; in [2]; on D(1A) dopamine receptor; in [3] (hek293); in [4]) was “Not Active” throughout. The IC50 result in data set [5] and in [6] was “Not Active” throughout. Besides, the Ki entry in data set [1], in [5] and in [6] was “Not Active” each time.

On to `OCCOCCN1CCN(C2=Nc3ccccc3Sc3ccccc32)CC1` [QUETIAPINE], for which the IC50 entry (on Mu-type opioid receptor (cho-k1); in data set [2]; at Cytochrome P450 2C9; in data set [3] (hek293); in data set [4]) was “Not Active” each time. Besides, on Cytochrome P450 2C9, the Ki result is listed as “Not Active”.

Regarding `COC(=O)[C@H]1[C@H]2C[C@@H]3c4[nH]c5cc(OC)ccc5c4CCN3C[C@H]2C[C@@H](OC(=O)c2cc(OC)c(OC)c(OC)c2)[C@@H]1OC` [RESERPINE], the Ki is 1.69 µM at Mu-type opioid receptor; “Not Active” in data set [1]; “Not Active” on Cytochrome P450 2C9; “Not Active” in [5]; “Not Active” in data set [6]. The IC50 was 4.15 µM at Mu-type opioid receptor (read-out: IC50); “Not Active” in [1]; “Not Active” in data set [2]; “Not Active” on D(1A) dopamine receptor; “Not Active” on Cytochrome P450 2C9; “Not Active” in data set [3] (hek293). The IC50 result in data set [4], in [5] and in data set [6] was “Not Active” in each case.

Consider `O=C(O)c1ccccc1O` [SALICYLIC ACID], for which the IC50 entry (in data set [1]; in [2]; at D(1A) dopamine receptor; at Cytochrome P450 2C9; in data set [4]; in data set [5]) was “Not Active” throughout. The IC50 entry in data set [6] was “Not Active”. For the same compound, the Ki entry (in data set [1]; at Cytochrome P450 2C9; in data set [5]; in data set [6]) was “Not Active” each time.

Consider `C[S+]([O-])c1ccc(-c2nc(-c3ccncc3)c(-c3ccc(F)cc3)[nH]2)cc1` (stereo unspecified) [SB-203580], for which the half-maximal inhibitory concentration (IC50) result (on Mu-type opioid receptor (cho-k1); in [2]; in data set [3] (hek293); in [4]) was “Not Active” each time.

Consider `O=C1C[C@@H]2OCC=C3CN4CC[C@]56c7ccccc7N1[C@H]5[C@H]2[C@H]3C[C@H]46` [STRYCHNINE], for which the IC50 entry (in data set [1]; in [2]; at D(1A) dopamine receptor; in data set [4]; in [5]; in data set [6]) was “Not Active” throughout. Also, the Ki entry in data set [1], in [5] and in [6] was “Not Active” throughout.

As to `C[N+](C)(C)CCOC(=O)CCC(=O)OCC[N+](C)(C)C.[Cl-].[Cl-]` [SUCCINYLCHOLINE CHLORIDE], the IC50 entry (at Mu-type opioid receptor (cho-k1); in data set [1]; in [2]; on D(1A) dopamine receptor; against Cytochrome P450 2C9; in [4]) was “Not Active” each time. The IC50 entry in data set [5] and in data set [6] was “Not Active” in each case. In addition, the Ki result (in data set [1]; on Cytochrome P450 2C9; in [5]; in data set [6]) was “Not Active” throughout.

With `CCCCCCCCNC(C)C(O)c1ccc(SC(C)C)cc1` (stereo unspecified) [SULOCTIDIL], the IC50 result (on Mu-type opioid receptor (cho-k1); at D(1A) dopamine receptor; against Cytochrome P450 2C9; in [3] (hek293); in data set [5]; in data set [6]) was “Not Active” each time. The Ki result (at Cytochrome P450 2C9; in data set [5]; in data set [6]) was “Not Active” each time.

For `CN1CCN(CCCN2c3ccccc3Sc3ccc(C(F)(F)F)cc32)CC1` [TRIFLUOPERAZINE], the IC50 result (on Mu-type opioid receptor (cho-k1); in data set [1]; in data set [2]; on D(1A) dopamine receptor; in [3] (hek293); in data set [4]) was “Not Active” throughout. Besides, the IC50 entry in data set [5] and in data set [6] was “Not Active” in each case. In addition, the Ki entry in data set [1], in [5] and in [6] was “Not Active” in each case.

On to TRANSPLATIN, for which the IC50 result (in data set [1]; in data set [2]; on D(1A) dopamine receptor; against Cytochrome P450 2C9; in [4]; in [5]) was “Not Active” throughout. Moreover, the IC50 entry in data set [6] is on record as “Not Active”. Besides, the Ki entry (in [1]; in [2]; on D(1A) dopamine receptor; on Cytochrome P450 2C9; in data set [4]; in data set [5]) was “Not Active” each time. Besides, the Ki entry in data set [6] is recorded as “Not Active”.

Take ZIRCONIUM(IV) CHLORIDE: the IC50 result (in data set [1]; in [2]; on D(1A) dopamine receptor; on Cytochrome P450 2C9; in data set [4]; in data set [5]) was “Not Active” throughout. The IC50 result in data set [6] is recorded as “Not Active”. For the same compound, the Ki entry (in [1]; in data set [2]; on D(1A) dopamine receptor; at Cytochrome P450 2C9; in data set [4]; in data set [5]) was “Not Active” in each case. The Ki result in [6] is listed as “Not Active”.
